Measured values as given in US6825227B2, “Method for fighting against arthropods destructive of crops and compositions therefor” (priority 2000, dated 2004).

How the values were obtained:
Format in all cases: in vivo
[1] = tested on: Nilaparvata lugens; experiment: Process Example H: variation in number of Nilaparvata lugens after treatment; conditions: fipronil 25 g/ha
Text: (§1) This process example gives an illustration of a process according to the invention which is useful for insecticidal treatment against Nilaparvata lugens.
(§2) The operating and measuring conditions are reproduced and adapted from Process Example B.
The active materials used, their application rates and the results obtained are collated in Table 8.

[2] = tested on: rice crop; experiment: Process Example D: yield of a rice crop with control of the insects which ravage it; conditions: versus plot without treatment
Method: This process example according to the invention gives an illustration of the improvement in the yield of a rice crop obtained concomitantly with the control of the insects which ravage this rice crop.
In this treatment Process Example according to the invention, the yield of the crop was evaluated, along with the improvement in this yield obtained by carrying out the said process according to the invention simultaneously using fipronil as compound (A) and cypermethrin as compound (B).
as §2
The application rates and the results are collated in Table 4.

[3] = tested on: Nephotettix apicalis; experiment: Process Example G: variation in number of Nephotettix apicalis after treatment
Text: This process example gives an illustration of a process according to the invention which is useful for insecticidal treatment against Nephotettix apicalis. The operating and measuring conditions are reproduced and adapted from Process Example B.
The active materials used, their application rates and the results obtained are collated in Table 7.

[4] = tested on: Nilaparvata lugens; experiment: Process Example F: variation in number of Nilaparvata lugens after treatment
Text: as §1, §2
The active materials used, their application rates and the results obtained are collated in Table 6.

[5] = tested on: Nilaparvata lugens; experiment: Process Example I: variation in number of Nilaparvata lugens after treatment; conditions: fipronil 25 g/ha
Text: as §1, §2
The active materials used, their application rates and the results obtained are collated in Table 9.

[6] = tested on: Tryporyza incertulas; experiment: Process Example A: treatment of rice plots against yellow rice stem borer, count of dead plant cores; conditions: applied 7 days after planting out
Method: The treatment process carried out was a treatment process against yellow rice stem borer or Tryporyza incertulas during the infestation of a rice crop. For the comparison of the process according to the invention with known insecticidal treatment processes, four plots were prepared in a similar manner.
The first is left without treatment, the second is treated with fipronil as active material, the third with deltamethrin and the fourth with fipronil and deltamethrin in accordance with the process according to the invention.
After sowing and then growing, the rice seedlings are transplanted at the three- to four-leaf stage.
The various active materials were then applied 7 days after planting out.
The formulation used in this process according to the invention is identical to that of Composition Example A.
The application rates and the results obtained are collated in Table 1.
(§3) The measurement was carried out by counting the number of rice plant cores that were dead due to attack by the damaging insects treated, i.e. Tryporyza incertulas; thus, the smallest number is obtained after carrying out the process according to the invention, while the untreated plots or plots treated in a known manner give substantially larger numbers.

[7] = tested on: Nephotettix apicalis; experiment: Process Example B: insecticidal treatment of a rice crop against leafhoppers; conditions: applied 25 days after planting out, 14 days after application
Method: This process example gives an illustration of a process according to the invention which is useful for insecticidal treatment against leafhoppers and in particular against Nephotettix apicalis.
This process according to the invention was carried out for the treatment of a rice crop.
(§4) The operating conditions were reproduced and adapted from those of Process Example A.
The active materials used were fipronil and deltamethrin in a formulation in the form of granules according to Composition Example A.
(§5) The active material(s) was(were) applied to the plots 25 days after planting out.
(§6) The rates of active materials applied and the results obtained 14 days after application are collated in Table 2.

[8] = tested on: Tryporyza incertulas; experiment: Process Example J: treatment of a rice crop against yellow rice stem borer, variation in dead plant cores; conditions: fipronil 25 g/ha
Method: The treatment process used was a process of treatment against yellow rice stem borer or Tryporyza incertulas during the infestation of a rice crop.
as §2
The active materials used, their application rates and the results obtained are collated in Table 10.
as §3, with “greatest degree of reduction” for “smallest number”, “whereas” for “while”, “more mediocre degrees.” for “larger numbers.”

[9] = tested on: Scotinophara lurida; experiment: Process Example K: treatment of a rice crop against Scotinophara lurida; conditions: fipronil 25 g/ha
Text: The treatment process used was a process of treatment against Scotinophara lurida during the infestation of a rice crop.
as §2
The active materials used, their application rates and the results obtained are collated in Table 11.

[10] = tested on: Nilaparvata lugens; experiment: Process Example C: insecticidal treatment against Nilaparvata lugens
Text: as §4, §5, §6
This process example gives an illustration of a process according to the invention which is useful for insecticidal treatment against Nilaparvata lugens. The operating and measuring conditions are reproduced and adapted from Process Example B.
The application rates and the results are collated in Table 3.

[11] = tested on: Nilaparvata lugens; experiment: Process Example E: variation in number of Nilaparvata lugens after treatment
Text: as §1, §2
The active materials used, their application rates and the results obtained are collated in Table 5.

Structure (SMILES): N#Cc1nn(-c2c(Cl)cc(C(F)(F)F)cc2Cl)c(N)c1[S+]([O-])C(F)(F)F (stereo not shown) [fipronil, 5-amino-3-cyano-1-(2,6-dichloro-4-trifluoromethylphenyl)-4-trifluoromethylsulphinylpyrazole]
- Degree of variation in the number of damaging insects 1 day after application ([1]; 1 day): −15%
- Degree of variation in the number of damaging insects 3 days after application ([1]; 3 days): −8%
- Degree of variation in the number of damaging insects 7 days after application ([1]; 7 days): −16%
- Degree of variation in the number of damaging insects 14 days after application ([1]; 14 days): +40%
- Improvement in the yield of the plot (%) ([2]; fipronil 10 g/ha): 188%
- Degree of variation in the number of damaging insects 1 day after application ([3]; fipronil 25 g/ha): +50%
- Degree of variation in the number of damaging insects 3 days after application ([3]; fipronil 25 g/ha): +83%
- Degree of variation in the number of damaging insects 7 days after application ([3]; fipronil 25 g/ha): +183%
- Degree of variation in the number of damaging insects 3 days after application ([4]; fipronil 25 g/ha): +33%
- Degree of variation in the number of damaging insects 7 days after application ([4]; fipronil 25 g/ha): +11%
- Degree of variation in the number of damaging insects 7 days after application [5]: +19%
- Proportion of dead plant cores found ([6]; fipronil 10 g/ha): 56%
- Insecticidal efficacy ([7]; fipronil 25 g/ha): 16%
- Degree of variation in the number of dead plant cores [8]: −35%
- Degree of variation in the number of damaging insects 1 day after treatment ([9]; 1 day): −43%
- Degree of variation in the number of damaging insects 3 days after treatment ([9]; 3 days): −67%
- Degree of variation in the number of damaging insects 14 days after treatment ([9]; 14 days): −45%
- Insecticidal efficacy ([10]; fipronil 10 g/ha): 78%
- Degree of variation in the number of damaging insects 3 days after application ([11]; fipronil 25 g/ha): +33%
- Degree of variation in the number of damaging insects 7 days after application ([11]; fipronil 25 g/ha): +11%

Structure (SMILES): CC1(C)[C@H](C(=O)O[C@H](C#N)c2cccc(Oc3ccccc3)c2)[C@@H]1C=C(Br)Br [deltamethrin, (S)-α-cyano-3-phenoxybenzyl (1R,3R)-3-(2,2-dibromovinyl)-2,2-dimethylcyclopropanecarboxylate]
- Degree of variation in the number of damaging insects 1 day after application ([3]; deltamethrin 6 g/ha): −13%
- Degree of variation in the number of damaging insects 3 days after application ([3]; deltamethrin 6 g/ha): +25%
- Degree of variation in the number of damaging insects 7 days after application ([3]; deltamethrin 6 g/ha): +75%
- Proportion of dead plant cores found ([6]; deltamethrin 6 g/ha): 66%
- Insecticidal efficacy ([7]; deltamethrin 6 g/ha): 6%
- Degree of variation in the number of damaging insects 3 days after application ([11]; deltamethrin 6 g/ha): +27%
- Degree of variation in the number of damaging insects 7 days after application ([11]; deltamethrin 6 g/ha): 0%

Structure (SMILES): CC1(C)C(C=C(Cl)Cl)C1C(=O)OC(C#N)c1cccc(Oc2ccccc2)c1 [cypermethrin, (R,S)-α-cyano-3-phenoxybenzyl (1RS,3RS;1RS,3SR)-3-(2,2-dichlorovinyl)-2,2-dimethylcyclopropanecarboxylate]
- Improvement in the yield of the plot (%) ([2]; cypermethrin 12.5 g/ha): 78%
- Degree of variation in the number of damaging insects 3 days after application ([4]; cypermethrin 12.5 g/ha): −27%
- Degree of variation in the number of damaging insects 7 days after application ([4]; cypermethrin 12.5 g/ha): +13%
- Insecticidal efficacy ([10]; cypermethrin 12.5 g/ha): 21%
